Measured values as given in patent publication US20260258050A1, “IMMUNOMODULATOR” (HITGEN INC., priority 2023, published 2026).

Legend:
Human IL-17A [1] = biological target: T1, Human IL-17A (Homo sapiens, UniProt Q16552); test: IL-17A enzyme-linked immunosorbent assay (competitive ELISA, IL-17A/IL-17Ra receptor-ligand binding); parameters: purchased Sino Biological Inc. 12047-H07B; details: human IL-17A coated plate, human IL-17Ra, read-out: IC50, inhibitory activity of compounds on human IL-17A
T1 sequence (Q16552 20-155 limits assumed): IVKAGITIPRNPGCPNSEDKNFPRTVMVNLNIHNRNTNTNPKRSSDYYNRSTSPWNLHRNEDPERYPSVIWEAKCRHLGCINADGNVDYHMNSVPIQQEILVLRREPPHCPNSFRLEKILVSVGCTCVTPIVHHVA
In short: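 Competitive ELISA with plates coated with human IL-17A at 0.2 μg/ml, blocked with 5% skim milk. Compound pre-incubated with IL-17A 10 min at 25 °C, then 16 nM IL-17Ra stock added for 30 min. Bound receptor detected by anti-Fc HRP/TMB, A450. IC50 from variable-slope fit of blank-corrected residual activity.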

Human IL-17AF = biological target: T2, Human IL-17AF (Homo sapiens, UniProt Q16552+Q96PD4); test: IL-17AF ELISA (competitive ELISA, IL-17AF/IL-17Ra receptor-ligand binding); details: human IL-17AF coated plate, human IL-17Ra, read-out: IC50, inhibitory activity of compounds on human IL-17AF
T2 construct: purchased Sino Biological Inc. CT047-H08H
T2 sequence (Q16552 24-155): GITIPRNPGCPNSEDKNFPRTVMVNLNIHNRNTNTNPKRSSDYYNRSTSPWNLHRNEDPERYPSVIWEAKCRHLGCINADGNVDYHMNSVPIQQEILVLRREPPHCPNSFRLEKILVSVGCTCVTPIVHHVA
T2 sequence (Q96PD4 31-163): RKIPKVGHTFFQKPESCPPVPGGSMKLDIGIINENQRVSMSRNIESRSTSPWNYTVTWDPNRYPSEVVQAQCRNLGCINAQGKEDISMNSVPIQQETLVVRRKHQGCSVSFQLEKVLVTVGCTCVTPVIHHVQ
Experimental: Experiment Example 2 IL-17AF ELISA
The inhibitory effects of human IL-17AF inhibitors on receptor-ligand binding were quantitatively determined by a competitive ELISA.
The ELISA was performed through the following steps.
Human IL-17AF (Sino Biological Inc., Cat #CT047-H08H) was diluted with coating buffer (50 mM PBS, pH 7.4) to reach a concentration of 0.625 μg/ml. 100 μL of the resulting solution was added to each well of a 96-well plate, and the plate was incubated at 37° C. for 30 min. In the blank group, 100 μL of coating buffer was added instead of the IL-17AF solution.
The plate was washed four times with 10 mM PBST (pH 7.4). 200 μL was used per well for each wash. After the final wash, the plate was tapped dry on absorbent paper.
Fresh 5% (w/v) skim milk solution was prepared before the experiment. For example, 5 grams of skim milk powder (Bio-Rad, Cat #170-6404) was completely dissolved in 100 mL of 10 mM PBST. 200 μL of the 5% (w/v) skim milk solution was added to each well, and the plate was incubated on a shaker at 25° C. for 30 min.
(S4) Preparation of 100× to-be-Tested Compound Solutions
During step (S3), the to-be-tested compound solutions were prepared. Each powdered compound was dissolved in dimethyl sulfoxide (DMSO) to reach a stock concentration of 10 mM. The to-be-tested compound solutions were then serially diluted four-fold with DMSO to obtain nine concentrations ranging from […].
(S6) Pre-Incubation of IL-17AF with to-be-Tested Compound Solutions
89 μL of PBST and 1 μL of each of the to-be-tested compound solutions were added to each well and mixed. The plate was pre-incubated at 25° C. for 10 min. In the blank group and the control group, 1 μL of DMSO was added instead of the to-be-tested compound solutions.
(S7) Incubation with Human IL-17Ra
10 μL of 100 nM IL-17Ra (Sino Biological Inc., Cat #10895-H03H) was added to each well, followed by incubation on a shaker at 25° C. for 30 min. The receptor solution was prepared in 10 mM PBST.
(S9) Incubation with Horseradish Peroxidase-Conjugated Antibody
100 μL of mouse anti-Fc tag HRP-conjugated antibody (Sino Biological Inc., Cat #10702-MM01T-H) was added to each well. The plate was incubated on a shaker at 25° C. for 30 min. The antibody was diluted with 5% (w/v) skim milk solution at 1:5,000 (v/v).
100 μL of TMB substrate solution (BD, Cat #555214) was added to each well. Substrate A and substrate B were freshly mixed at a volume ratio of 1:1 before use. The plate was incubated in the dark at 25° C. for 5-15 min.
(S12) Termination and Detection
The color reaction was terminated by addition of 2.5 M HCl. Absorbance was measured at 450 nm using a BMG PHERStar microplate reader.
(S13) Calculation of Half-Maximal Inhibitory Concentration (IC50)
The relative percent residual activity at each compound concentration was calculated according to Equation 1. The IC50 value of each test compound was then calculated in GraphPad 6 using the equation for log(inhibitor) versus normalized response with variable slope, as shown in Equation 2.
relative percent residual activity (%)=[(absorbance of sample−absorbance of blank group)/(absorbance of control group−absorbance of blank group)]%. Equation 1: […]
The compounds prepared in the Examples were tested for IL-17AF inhibitory activity according to the above method.

Human IL-17A [2] = biological target: T1, Human IL-17A; test: Inhibition of human IL-17A protein-induced GROα/CXCL1 production in HT-29 cells; type: cell-based; parameters: purchased R&D 317-ILB; host or cells: added exogenously to HT-29 cells; details: 30 ng/mL human IL-17A protein, 48 h, GROα in supernatant by ELISA kit, read-out: Inhibitory IC50 of compounds on HT-29 cell GROα/CXCL1
Experimental: Experiment Example 3 Inhibition of Human IL-17A Protein-Induced GROα/CXCL1 Production in HT-29 Cells by Compounds
This assay was conducted to evaluate the ability of the compounds to inhibit human IL-17A protein-induced production of the chemokine growth-regulated oncogene alpha/C-X-C motif chemokine ligand 1 (GROα/CXCL1) in HT-29 cells.
Human colorectal adenocarcinoma epithelial HT-29 cells (Chengdu Zhongyuan Gongchuang Technology Co., Ltd.) were seeded into a 96-well plate at a density of 5×10^4 cells per well and were cultured overnight in an incubator at 37° C.
30 ng/mL of human IL-17A protein (R&D, #317-ILB) was mixed with gradient concentrations of the IL-17A small-molecule inhibitor, or with […] of a positive control IL-17A antibody (R&D, #AF-317-NA). These mixtures were incubated at 37° C. for 1 h and were then added to the plate. The mixtures were co-incubated with the HT-29 cells at 37° C. for 48 h. Thereafter, the level of GROα in the cell culture supernatant was determined using a GROα ELISA kit (Cisbio, #62HCXC1PEG).
The inhibitory activity of each compound was expressed as the half-maximal inhibitory concentration (IC50) for inhibition of GROα/CXCL1 production in HT-29 cells.

IC50 (Human IL-17A [1]) | IC50 (Human IL-17AF) | IC50 (Human IL-17A [2]) | SMILES
≤ 50 nM | 100 to 500 nM | – | CCn1nccc1C(=O)N[C@H](C(=O)Nc1ccc2c(c1)COCCc1n[nH]c(C)c1-2)[C@H]1CC[C@H](C)CC1 [compound 10]
≤ 50 nM | 100 to 500 nM | – | Cc1[nH]nc2c1-c1cc(F)c(NC(=O)[C@@H](NC(=O)c3ccnn3C3CC3)C(C3CC3)C3CC3)cc1COCC2 [compound 19]
50 to 150 nM | 100 to 500 nM | – | Cc1[nH]nc2c1-c1ccc(NC(=O)[C@@H](NC(=O)c3ccnn3C(C)C)C(C3CC3)C3CC3)cc1CN(C)CC2 [compound 24]
50 to 150 nM | 100 to 500 nM | – | CCn1nccc1C(=O)N[C@H](C(=O)Nc1ccc2c(c1)CN(C)CCc1n[nH]c(C)c1-2)C(C1CC1)C1CC1 [compound 25]
50 to 150 nM | 100 to 500 nM | – | Cc1[nH]nc2c1-c1ccc(NC(=O)[C@@H](NC(=O)c3ccnn3C)C(C3CC3)C3CC3)cc1CN(C)CC2 [compound 26]
≤ 50 nM | ≤ 100 nM | – | CCc1nocc1C(=O)N[C@H](C(=O)Nc1cc2c(cc1F)-c1c(n[nH]c1C)CCOC2)C(C1CC1)C1CC1 [compound 33]
≤ 50 nM | ≤ 100 nM | – | Cc1[nH]nc2c1-c1cc(F)c(NC(=O)[C@@H](NC(=O)c3conc3C3CC3)C(C3CC3)C3CC3)cc1COCC2 [compound 34]
≤ 50 nM | 100 to 500 nM | – | Cc1[nH]nc2c1-c1cc(F)c(NC(=O)[C@@H](NC(=O)c3conc3C(C)C)C(C3CC3)C3CC3)cc1COCC2 [compound 35]
≤ 50 nM | 100 to 500 nM | – | COCCn1nccc1C(=O)N[C@H](C(=O)Nc1cc2c(cc1F)-c1c(n[nH]c1C)CCOC2)C(C1CC1)C1CC1 [compound 57]
50 to 150 nM | 100 to 500 nM | – | Cc1[nH]nc2c1-c1cc(F)c(NC(=O)[C@@H](NC(=O)c3ccnn3CC(C)(C)F)C(C3CC3)C3CC3)cc1COCC2 [compound 82]
≤ 50 nM | 100 to 500 nM | – | Cc1[nH]nc2c1-c1cc(F)c(NC(=O)[C@@H](NC(=O)c3ccnn3CC(F)(F)F)C(C3CC3)C3CC3)cc1COCC2 [compound 94]
50 to 150 nM | 100 to 500 nM | – | Cc1[nH]nc2c1-c1cc(F)c(NC(=O)[C@@H](NC(=O)c3ccnn3CCN3CCOCC3)C(C3CC3)C3CC3)cc1COCC2 [compound 97]
≤ 50 nM | 100 to 500 nM | – | CCn1nccc1C(=O)N[C@H](C(=O)Nc1cc2c(cc1F)-c1c(n[nH]c1C)CC(C)(C)OC2)C(C1CC1)C1CC1 [compound 117]
50 to 150 nM | 100 to 500 nM | – | Cc1[nH]nc2c1-c1cc(F)c(NC(=O)[C@@H](NC(=O)c3ccnn3C)C(C3CC3)C3CC3)cc1CN(C)C(=O)C2 [compound 134]
– | ≤ 100 nM | 100 to 500 nM | COCCN1Cc2cc(NC(=O)[C@@H](NC(=O)c3ccnn3C(C)C)C(C3CC3)C3CC3)c(F)cc2-c2c(n[nH]c2C)CC1=O [compound 137]
– | ≤ 100 nM | 100 to 500 nM | CCn1nccc1C(=O)N[C@H](C(=O)Nc1cc2c(cc1F)-c1c(n[nH]c1C)CC(=O)N(CCOC)C2)C(C1CC1)C1CC1 [compound 138]
≤ 50 nM | 100 to 500 nM | – | Cc1[nH]nc2c1-c1cc(F)c(NC(=O)[C@@H](NC(=O)c3ccnn3C(C)C)C(C3CC3)C3CC3)cc1CN(C)CC2 [compound 154]
50 to 150 nM | 100 to 500 nM | – | Cc1[nH]nc2c1-c1cc(F)c(NC(=O)[C@@H](NC(=O)c3ccnn3C(C)C)C(C3CC3)C3CC3)cc1CN(C(C)C)CC2 [compound 162]
≤ 50 nM | 100 to 500 nM | – | Cc1[nH]nc2c1-c1cc(F)c(NC(=O)[C@@H](NC(=O)c3ccc(C#N)n3C)C(C3CC3)C3CC3)cc1COCC2 [compound 227]
